Source: patent publication US20180110762A1, “Compositions Methods for Treating Chronic Kidney Disease” (Merck Sharp & Dohme Corp, priority 2015, published 2018)

Tests used:
human podocytes = test: Oris cell migration assay, PAN-induced podocyte motility, vitronectin coated plate; assay type: cell-based; conditions: 48 h; for % migrated cells vs control cells: VN plate
Experimental: The effects of Compound A on podocyte motility were evaluated using Oris cell migration assay kit in 96-well plates (coated with either vitronectin or fibronectin). The Oris™ Cell Migration Assay is designed with a unique cell seeding stopper or biocompatible gel, detection mask, and stopper tool. These unique plate designs generate highly reproducible results using a microscope, digital imaging system. 7 to 10-day differentiated human podocytes (100 ul of 50,000 cells/ml) were seeded in each well of the ORIS plate. After sitting at room temperature for about 15 minutes, the plate was placed into 37° C. incubator and podocytes were incubated with complete podocyte medium for 24 h. Stoppers from each well (keeping stoppers in 4 wells which were served as time zero control) were carefully removed, medium discarded, and fresh (10% FBS) podocyte medium added to each well. Podocytes were pretreated with Compound A (10 uM to 0.01 nM) for 2 h prior to puromycin animonucleoside (PAN, 30 ug/ml or 15 ug/ml) treatment. Podocytes were then treated with PAN in the presence or absence of Compound A at different concentrations (ranging from 10 uM to 0.01 nM) in 10% FBS medium for 48 h. Podocytes were then fixed with 4% paraformaldehyde in PBS for 30 minutes (adding 50 ul to each well). After discarding the fixative, podocytes were stained with Hoechst 33342 (stock […] working concentration at 5 uM) for 30 min. Podocytes were then washed with PBS three times. Finally, after adding 100 ul of PBS to each well, plate was sealed with a black cover and kept at 4° C. until image analysis. Images of podocyte motility were captured using Acumen eX3 (manufacturer TTP Labtech Ltd. address: Melbourn Science Park, Melbourn, Hertfordshire SG8 6EE, United Kingdom).
Effect of Compound A (“A”) on human podocyte motility was examined using Oris cell migration assay in vitronectin (VN) coated-96-well plate.

postmenopausal women = conditions: Phase II study; cited from earlier work
[1] = test system: male obese ZSF1 rats (diabetic nephropathy model); test: ZSF1 rat study: kidney mRNA expression of profibrotic genes and integrin beta3; assay type: in vivo; conditions: for Collagen I (a1) expression in the kidney / Collagen III (a1) expression in the kidney / Integrin beta3 expression in the kidney / PAI-1 expression in the kidney: obese ZSF1 rats, week 28
Experimental: (§1) The effects of Compound A (“A”) on renal function, plasma triglycerides, plasma cholesterol, kidney collagen I, kidney collagen III, renal histology, glomerular filtration rate, fibrosis score, and mRNA gene expression (profibrotic genes and integrin β3) were evaluated in male obese ZSF1 rats (a hybrid F1 of Zucker diabetic fatty rat and spontaneously hypertensive heart failure rat; a diabetic nephropathy model) when administered as in-feed for 28 weeks. Sixty obese male ZSF1 rats were randomized to five groups: Obese control (n=12), Compound A 60 mpk (n=12), Compound A 200 mpk (n=12), Compound A 400 mpk (n=12), Enalapril 10 mpk (n=12); Eight lean male ZSF1 rats were used for normal control. Renal functional changes were monitored by blood and urine analysis following in-feed dosing for 28 weeks. Compound exposure was also monitored during the study.

[2] = test system: male obese ZSF1 rats (diabetic nephropathy model); test: ZSF1 rat study: plasma triglyceride and cholesterol; assay type: in vivo; conditions: for Plasma Triglyceride / plasma cholesterol levels: obese ZSF1 rats; for plasma cholesterol levels: in mg/dL (unit assumed)
Experimental: as §1

With `COc1ccc([C@H](CC(=O)O)N2CCN(CCCc3ccc4c(n3)NCCC4)C2=O)cn1` [Compound A, 3-{2-Oxo-3-[3-(5,6,7,8-tetrahydro-[1,8]naphthyridin-2-yl)-propyl]imidazolidin-1-yl}-3 (S)-(6-methoxy-pyridin-3-yl)-propionic acid] the IC50 (human podocytes; Homo sapiens, vitronectin coated plates, PAN 30 ug/ml, read-out: IC50, inhibition of puromycin-induced human podocyte motility) was 9.94 nM, the “% migrated cells vs control cells” value (human podocytes; PAN 30 ug/ml + A 0.01 nM) was 55.1% and the “% migrated cells vs control cells” value (human podocytes; PAN 30 ug/ml + A 0.0316 nM) was 44.0%. For the same molecule, the “% migrated cells vs control cells” value (human podocytes; PAN 30 ug/ml + A 0.1 nM) was 43.0%, the “% migrated cells vs control cells” value (human podocytes; PAN 30 ug/ml + A 0.316 nM) was 36.6% and the “% migrated cells vs control cells” value (human podocytes; PAN 30 ug/ml + A 1 nM) was 42.1%. For the same molecule, the “% migrated cells vs control cells” value (human podocytes; PAN 30 ug/ml + A 3.16 nM) was 31.3%, the “% migrated cells vs control cells” value (human podocytes; PAN 30 ug/ml + A 10 nM) was 28.6% and the “% migrated cells vs control cells” value (human podocytes; PAN 30 ug/ml + A 100 nM) was 19.6%. The “% migrated cells vs control cells” value (human podocytes; PAN 30 ug/ml + A 1 uM) was 16.1%, the “% migrated cells vs control cells” value (human podocytes; PAN 30 ug/ml + A 10 uM) was 16.9% and the bone density (postmenopausal women) was “increase bone density”. The “effect on expression of key profibrotic genes and integrin beta3 in the kidney vs obese vehicle” value ([1]; 200 mpk or 400 mpk at week 28) was “significantly decreased”, the “Collagen I (a1) expression in the kidney” value ([1]; 200 mpk in-feed) was 0.79 ± 0.04 and the “Collagen III (a1) expression in the kidney” value ([1]; 200 mpk in-feed) was 0.60 ± 0.03. The “Integrin beta3 expression in the kidney” value ([1]; 200 mpk in-feed) was 0.83 ± 0.03, the “PAI-1 expression in the kidney” value ([1]; 200 mpk in-feed) was 0.80 ± 0.03 and the “Collagen I (a1) expression in the kidney” value ([1]; 400 mpk in-feed) was 0.66 ± 0.02. For the same molecule, the “Collagen III (a1) expression in the kidney” value ([1]; 400 mpk in-feed) was 0.52 ± 0.01, the “Integrin beta3 expression in the kidney” value ([1]; 400 mpk in-feed) was 0.74 ± 0.03 and the “PAI-1 expression in the kidney” value ([1]; 400 mpk in-feed) was 0.66 ± 0.03. The “effect on plasma triglyceride levels” value ([2]; 200 mpk at week 4 and 400 mpk at week 16 and 28) was “significantly decreased”, the “effect on plasma cholesterol levels” value ([2]; 200 mpk at week 28 and 400 mpk at week 16, 21, 24, and 28) was “significantly decreased” and the “plasma TG and cholesterol” value ([2]; high doses, obese ZSF-1 rats vs untreated obese ZSF-1 rats (summary)) was “improvement of plasma TG and cholesterol”. For the same molecule, the “Plasma Triglyceride” value ([2]; 60 mpk in-feed, week 2) was 2535.3 ± 170.6 mg/dL, the plasma cholesterol levels ([2]; 60 mpk in-feed, week 2) was 229.3 ± 9.6 and the “Plasma Triglyceride” value ([2]; 60 mpk in-feed, week 4) was 2807.5 ± 143.4 mg/dL. The plasma cholesterol levels ([2]; 60 mpk in-feed, week 4) was 262.7 ± 10.5, the “Plasma Triglyceride” value ([2]; 60 mpk in-feed, week 6) was 2873.2 ± 116.5 mg/dL and the plasma cholesterol levels ([2]; 60 mpk in-feed, week 6) was 261.2 ± 9.9. For the same molecule, the “Plasma Triglyceride” value ([2]; 60 mpk in-feed, week 8) was 3187.9 ± 157.1 mg/dL, the plasma cholesterol levels ([2]; 60 mpk in-feed, week 8) was 289.1 ± 9.5 and the “Plasma Triglyceride” value ([2]; 60 mpk in-feed, week 12) was 3138.5 ± 168.9 mg/dL. For the same molecule, the plasma cholesterol levels ([2]; 60 mpk in-feed, week 12) was 315.4 ± 13.2, the “Plasma Triglyceride” value ([2]; 60 mpk in-feed, week 16) was 3120.3 ± 191.6 mg/dL and the plasma cholesterol levels ([2]; 60 mpk in-feed, week 16) was 357.8 ± 13.3. For the same molecule, the “Plasma Triglyceride” value ([2]; 60 mpk in-feed, week 21) was 2933.4 ± 317.5 mg/dL, the plasma cholesterol levels ([2]; 60 mpk in-feed, week 21) was 392.9 ± 20.6 and the “Plasma Triglyceride” value ([2]; 60 mpk in-feed, week 24) was 3093.3 ± 355.2 mg/dL. The plasma cholesterol levels ([2]; 60 mpk in-feed, week 24) was 448.0 ± 23.8, the “Plasma Triglyceride” value ([2]; 60 mpk in-feed, week 28) was 3218.7 ± 427.5 mg/dL and the plasma cholesterol levels ([2]; 60 mpk in-feed, week 28) was 495.7 ± 29.4. For the same molecule, the “Plasma Triglyceride” value ([2]; 60 mpk in-feed, week −2) was 2046.8 ± 72.0 mg/dL, the plasma cholesterol levels ([2]; 60 mpk in-feed, week −2) was 192.0 ± 4.5 and the “Plasma Triglyceride” value ([2]; 200 mpk in-feed, week 2) was 2111.1 ± 123.5 mg/dL. For the same molecule, the plasma cholesterol levels ([2]; 200 mpk in-feed, week 2) was 205.4 ± 7.8, the “Plasma Triglyceride” value ([2]; 200 mpk in-feed, week 4) was 2592.4 ± 206.8 mg/dL and the plasma cholesterol levels ([2]; 200 mpk in-feed, week 4) was 243.5 ± 9.2. For the same molecule, the “Plasma Triglyceride” value ([2]; 200 mpk in-feed, week 6) was 2534.6 ± 185.5 mg/dL, the plasma cholesterol levels ([2]; 200 mpk in-feed, week 6) was 233.7 ± 9.1 and the “Plasma Triglyceride” value ([2]; 200 mpk in-feed, week 8) was 3325.3 ± 189.8 mg/dL. For the same molecule, the plasma cholesterol levels ([2]; 200 mpk in-feed, week 8) was 289.3 ± 9.3, the “Plasma Triglyceride” value ([2]; 200 mpk in-feed, week 12) was 3188.3 ± 191.4 mg/dL and the plasma cholesterol levels ([2]; 200 mpk in-feed, week 12) was 315.9 ± 11.2. For the same molecule, the “Plasma Triglyceride” value ([2]; 200 mpk in-feed, week 16) was 2930.4 ± 217.5 mg/dL, the plasma cholesterol levels ([2]; 200 mpk in-feed, week 16) was 346.8 ± 12.1 and the “Plasma Triglyceride” value ([2]; 200 mpk in-feed, week 21) was 2717.2 ± 199.8 mg/dL. The plasma cholesterol levels ([2]; 200 mpk in-feed, week 21) was 366.7 ± 14.1, the “Plasma Triglyceride” value ([2]; 200 mpk in-feed, week 24) was 2923.8 ± 267.3 mg/dL and the plasma cholesterol levels ([2]; 200 mpk in-feed, week 24) was 415.1 ± 19.6. The “Plasma Triglyceride” value ([2]; 200 mpk in-feed, week 28) was 2632.8 ± 269.6 mg/dL, the plasma cholesterol levels ([2]; 200 mpk in-feed, week 28) was 451.9 ± 23.6 and the “Plasma Triglyceride” value ([2]; 200 mpk in-feed, week −2) was 1965.3 ± 83.6 mg/dL. The plasma cholesterol levels ([2]; 200 mpk in-feed, week −2) was 189.5 ± 6.6, the “Plasma Triglyceride” value ([2]; 400 mpk in-feed, week 2) was 2415.9 ± 119.5 mg/dL and the plasma cholesterol levels ([2]; 400 mpk in-feed, week 2) was 229.8 ± 6.0. The “Plasma Triglyceride” value ([2]; 400 mpk in-feed, week 4) was 2763.1 ± 146.9 mg/dL, the plasma cholesterol levels ([2]; 400 mpk in-feed, week 4) was 252.3 ± 5.3 and the “Plasma Triglyceride” value ([2]; 400 mpk in-feed, week 6) was 2715.6 ± 111.4 mg/dL. For the same molecule, the plasma cholesterol levels ([2]; 400 mpk in-feed, week 6) was 238.9 ± 6.6, the “Plasma Triglyceride” value ([2]; 400 mpk in-feed, week 8) was 3185.0 ± 191.8 mg/dL and the plasma cholesterol levels ([2]; 400 mpk in-feed, week 8) was 278.8 ± 9.5. The “Plasma Triglyceride” value ([2]; 400 mpk in-feed, week 12) was 3086.5 ± 121.3 mg/dL, the plasma cholesterol levels ([2]; 400 mpk in-feed, week 12) was 306.4 ± 7.0 and the “Plasma Triglyceride” value ([2]; 400 mpk in-feed, week 16) was 2648.9 ± 167.8 mg/dL. The plasma cholesterol levels ([2]; 400 mpk in-feed, week 16) was 304.6 ± 11.1, the “Plasma Triglyceride” value ([2]; 400 mpk in-feed, week 21) was 2523.9 ± 220.7 mg/dL and the plasma cholesterol levels ([2]; 400 mpk in-feed, week 21) was 351.4 ± 13.8. For the same molecule, the “Plasma Triglyceride” value ([2]; 400 mpk in-feed, week 24) was 2439.5 ± 162.4 mg/dL, the plasma cholesterol levels ([2]; 400 mpk in-feed, week 24) was 374.7 ± 12.8 and the “Plasma Triglyceride” value ([2]; 400 mpk in-feed, week 28) was 2215.7 ± 179.3 mg/dL. For the same molecule, the plasma cholesterol levels ([2]; 400 mpk in-feed, week 28) was 391.2 ± 14.7, the “Plasma Triglyceride” value ([2]; 400 mpk in-feed, week −2) was 2211.5 ± 117.2 mg/dL and the plasma cholesterol levels ([2]; 400 mpk in-feed, week −2) was 195.5 ± 5.5.
